From paper PMC8427951, “Design, synthesis, and preliminary evaluation of a potential synthetic opioid rescue agent” (Journal of Biomedical Science, 2021) come the findings set out here.

Entries after “also recorded” stand apart in the source; their conditions may differ. Read-outs that look alike come from different tables or passages of the source.

Data set [1] is described as follows: Pharmacokinetic study, plasma (IV, PO, IP). It counts as in vivo, C57BL/6J mice. The note with it: for half-life / Tmax / bioavailability / AUC: plasma; for AUC: NCA. As for the experimental part:
(§1) Adult male C57BL/6J mice were purchased from Jackson Laboratories (Bar Harbor, ME). The animals were housed in polyethylene cages and given food and water ad libitum. Animals were administered 29 by intravenous, oral gavage or intraperitoneal (IV, PO or IP injection). Two groups of mice (n = 3/group) were sampled three times each via the saphenous vein. Whole blood samples were collected into heparinized pipet tips, centrifuged at 4300×g for 2 min to isolate plasma and transferred onto dry ice. Plasma samples were stored at − 80 °C until processing. Separately, for brain biodistribution studies, five mice per time-point were administered 29 via the IP route and a single blood sample was collected from each animal via intracardiac puncture prior to perfusing with ice-cold saline for 5 min before removing the brain. All animal procedures were conducted in accordance with The Guide for the Care and Use of Laboratory Animals (National Academic Press, 1996) and approved by the IACUC (Institutional Animal Care and Use Committee) at the University of Kentucky and at the Rockefeller University.
Experimental plasma samples were thawed at 37 °C for 3 min and vortex mixed. […] Samples were vortex mixed, then treated with 4× volume (60 µL) of 0.1% formic acid in methanol to precipitate proteins. The samples were vortex mixed (5 s) then centrifuged at 13,000×g for 15 min at 4 °C. The resulting supernatants were collected into amber HPLC vials fitted with 200 µL glass inserts and immediately analyzed for analyte content by LC/MS–MS.
(§2) For the analysis of total amount of 29 in the plasma samples, calibration curve was generated with 29 drug spiked to mouse blank plasma. Calibrators (0.25–1000 ng/mL) were prepared by the addition of 5 µL of appropriate spiking solution into 100 µL blank plasma followed by vortex mixing. Quality control samples (0.75, 25, 500, 850 ng/mL) were prepared from an independent second stock in a similar fashion. For the analysis of 29 in brain tissue samples, calibration curve was generated with 29 drug spiked to blank mouse brain tissue homogenate using a calibration curve (0.5–372 ng/mL) and quality control samples (0.75, 13.3, 25, 266 ng/mL). The limit of quantitation for plasma was 0.4 ng/mL and for brain tissue 1 ng/mL.
(§3) Analyte and internal standard contained in 4 µL sample injections were eluted from a Waters XBridge C18 (3.5µ, 4.6 × 150 mm; oven temp. 40 °C) analytical column with a 0.1% formic acid in water (Mobile Phase-A): 0.1% formic acid in acetonitrile (Mobile Phase-B) gradient. […] The 90% Mobile Phase-B was maintained for 2.5 min before returning to the initial 35% over a 0.1 min linear ramp. […] The total run time was 7.5 min. Positive-mode ESI Turbo V® source and MS gas, temperature and voltage potential settings were based on optimized parameters determined prior to analysis using infusions of 1000 ng/mL drug standards in 50:50 mobile phase mixture mixed with LC effluent for a total 0.6 mL/min flow rate. Flow-dependent parameters were: CUR = 35/ISV = 5500/TEM = 550/GS1 = 65/GS2 = 65/Horizontal probe position = 7/Vertical probe position = 0.5). […] Calibrators, quality control samples and experimental sample sequences consisted of single randomized experimental sample injections flanked by sets of blanks, and calibrators. A calibration curve was constructed by weighted (1/x^2) polynomial regression analysis of analyte concentration to analyte peak area using GraphPad Prism software (Ver 8.4.3).
(§4) All data sets were analyzed using Phoenix WinNonlin (Certara). A 2-compartment mammillary model was simultaneously fitted to all plasma concentrations obtained from intravenous, oral, and intraperitoneal administration of 29. The oral and intraperitoneal bioavailability was also estimated. Parameters were estimated using population modeling with quasi-random parameter estimation method (QRPEM). […]

The subject of data set [2] is C57BL/6J mice. In words: Locomotor activity assay, deficits caused by KOR agonist U50,488. It counts as in vivo. As for the experimental part:
These studies (in C57BL/6J mice from the Jackson Laboratory) focused on the effectiveness of 29 in preventing decreases in locomotor activity caused by the KOR agonist U50,488 (10 mg/kg, IP) over 90 min. This dose and duration of monitoring period was based on recently published studies. Mice were placed individually in rectangular transparent plastic cages (19.7 cm width × 41.3 cm length × 20.3 cm height) with bedding identical to that in the home cage. Each cage was in a photocell frame with an array of perpendicular photocell beams (SmartFrame; Kinder Scientific, Poway, CA). Beam breaks caused by the mouse were quantified through a computer interface. Mice were habituated to this apparatus for a 60-min session. Consecutive experiments in the same mice were separated by at least 72 h. Vehicle or 29 was injected 30 min prior to U50,488 (10 mg/kg). Immediately after the U50,488 injection, each mouse was placed in a locomotor activity cage for a 90-min period.
The locomotor activity data were analyzed as beam breaks over 15-min bins. Data were analyzed with 2-way repeated measures or mixed effects ANOVAs, followed by appropriate post-hoc tests (GraphPad Prism software).

The nature of data set [3]: Brain biodistribution study after IP dosing. The conditions noted are these: male, C57BL/6J, mouse, 2 mg/kg. It counts as in vivo, C57BL/6J mice. As to the method:
as §1
Brains were excised and sectioned at the sagittal plane. Half of the brain from each animal was homogenized (1:1, w/v) with phosphate buffered saline. […] Proteins were precipitated by addition of 80 µL of 0.1% formic acid. Samples were vortex mixed (10 s) and stored at − 20 °C for 20 min prior to centrifugation at 13,000×g for 15 min at 4 °C. The resulting supernatants were collected into amber HPLC vials fitted with 200 µL glass inserts and immediately analyzed for analyte content by LC/MS–MS.
as §2, §3, §4

For data set [4], the system named is C57BL/6J mice. In words: Hot plate assay, oxycodone-induced thermal antinociception. It counts as in vivo.
Setting [5] is: male, C57BL/6J, mouse, IP, 2 mg/kg.
Setting [6] is: male, C57BL/6J, mouse, IV, 2 mg/kg.
The mark [7] stands for this setting: male, C57BL/6J, mouse, PO, 5 mg/kg.

With `C=C1CC[C@@]2(OCCC)[C@H]3Cc4ccc(O)c5c4[C@@]2(CCN3CC2CC2)[C@H]1O5` [Compound 29], the CL2 in data set [1] (2-compartment model) was 174 mL/min/kg. In data set [1] (2-compartment model), this molecule registered a V2 of 6.07 L/kg. Further, in data set [1] (2-compartment model fitted to IV, PO and IP plasma concentrations), the V came to 5.36 L/kg. In data set [1] (2-compartment model, IP 2 mg/kg, 2 mg/kg), the “FIP (bioavailability following IP administration)” value turned out to be 99.5%. Moreover, in data set [1] (2-compartment model, intraperitoneal absorption), the “Ka,ip” value amounted to 7.53 h⁻¹. In data set [1] (2-compartment model, oral absorption), the “Ka,po” value is 7.91 h⁻¹. In data set [1] (IP dosing), the “time of measurable plasma concentrations” value is “at least 6 h”. For the same molecule, in data set [1] (following IV and PO dosing), the “time plasma concentrations were above the lower quantitation limit” value is 2 h. Moreover, the half-life was 54 min in data set [1] (male, C57BL/6J, mouse, intraperitoneal, 2 mg/kg, mice, read-out: plasma half-life (converted)); 36 to 60 min in data set [1] (male, C57BL/6J, mouse, intravenous, oral, intraperitoneal, mice, read-out: plasma half-life (converted)); 56.4 min in data set [1] (male, C57BL/6J, mouse, IP, 2 mg/kg, read-out: Apparent half-life, t½ (converted)); 34.8 min in data set [1] (male, C57BL/6J, mouse, IV, 2 mg/kg, read-out: Apparent half-life, t½ (converted)); 59.4 min in data set [1] (male, C57BL/6J, mouse, PO, 5 mg/kg, read-out: Apparent half-life, t½ (converted)); around 80 min in data set [3] (brain, ip, IP dosing, brain, mice, read-out: apparent terminal half-life in the brain). Moreover, the half-life is 80.4 min in data set [3] (brain, ip, IP, brain, read-out: Apparent half-life, t½ (converted)) and 55 min in data set [3] (plasma, ip, IP dosing, plasma, read-out: apparent terminal half-life in plasma). For the same molecule, in data set [1] (male, C57BL/6J, mouse, intraperitoneal, 2-compartment model fitted to IV, PO and IP plasma concentrations), the clearance is 202 mL/min/kg. For the same molecule, the Tmax in data set [1] (male, C57BL/6J, mouse, intraperitoneal, PO and IP administration) was at most 10 min; in data set [1] (setting [5]), 7.2 min; in data set [1] (setting [6]), 4.8 min; in data set [1] (setting [7]), 6 min; in data set [3] (brain, ip, IP dosing, brain, read-out: Tmax in brain (converted)) it was around 20 min; in data set [3] (brain, ip, IP, brain, read-out: Tmax), 19.2 min. Moreover, the bioavailability is around 100% in data set [1] (male, C57BL/6J, mouse, ip, 2 mg/kg, 2-compartment model, IP 2 mg/kg, read-out: FIP (bioavailability following IP administration)) and around 6.6% in data set [1] (male, C57BL/6J, mouse, po, 5 mg/kg, 2-compartment model, PO 5 mg/kg, read-out: Fpo (oral bioavailability)). The AUC in data set [1] (setting [5]) came to 0.397 µM·h; in data set [1] (setting [6]), 0.207 µM·h; in data set [1] (setting [7]), 0.064 µM·h; in data set [3] (IP, brain, NCA) it was 0.634 µM·h. Moreover, the “blockade of locomotor effects of U50,488” value with C57BL/6J mice [2] (29 0.1 mg/kg IP, 30 min before U50,488 10 mg/kg) is reported as “ineffective; also recorded: did not cause any apparent blockade”. In addition, the “blockade of locomotor depressant effects of U50,488” value in the data set with C57BL/6J mice [2] (29 1 mg/kg IP, 30 min before U50,488 10 mg/kg) is “did block the locomotor depressant effects; also recorded: able to prevent locomotor deficits”. Besides, the “effect on locomotor activity alone” value in the data set with C57BL/6J mice [2] (29 1 mg/kg alone, compared to a vehicle injection) is “did not cause significant effects on locomotor activity”. In addition, in data set [3] (brain, ip, read-out: partition coefficient, Kp,brain), the Kp stood at 1.6. Moreover, the “duration of MOR antagonist action (lower bound)” value with C57BL/6J mice [4] (0.1 mg/kg IP) is given as “at least 240 min”. In the data set with C57BL/6J mice [4] (0.1 mg/kg IP), the “duration of action (upper bound)” value is on record as “less than 24 h”. In the data set on C57BL/6J mice [4] (29 0.1 mg/kg IP, 30 min before oxycodone 5.6 mg/kg IP), the “prevention of oxycodone-induced antinociception” value is recorded as “fully effective; also recorded: complete prevention”. The “prevention of peak antinociceptive effects of oxycodone (time course)” value in the data set on C57BL/6J mice [4] (29 0.1 mg/kg IP, pretreatment 15, 30, 120 and 240 min before oxycodone 5.6 mg/kg, measured 15 min after oxycodone) was “significantly prevent”. For the same molecule, the “prevention of oxycodone-induced antinociception (dose-dependence)” value in the data set on C57BL/6J mice [4] (29 0.01–0.1 mg/kg IP, 30 min before oxycodone 5.6 mg/kg IP) is “dose-dependently; also recorded: dose-dependent prevention”. For the same molecule, in the data set with C57BL/6J mice [4] (after IP injection, 0.1 mg/kg), the “onset of antagonist action” value was at most 15 min.
For `COc1ccc2c3c1O[C@H]1C(=O)CC[C@@]4(O)[C@@H](C2)N(C)CC[C@]314` [Oxycodone, oxycodone, reference compound], the “time of peak effects after injection” value in the data set with C57BL/6J mice [4] (oxycodone 5.6 mg/kg IP) is reported as 15 min. Also, the antinociceptive effect result with C57BL/6J mice [4] (oxycodone 5.6 mg/kg IP, 30 min after vehicle pretreatment) is recorded as “near-maximal antinociceptive effect”.

The half-life is the time needed for the level to fall by half in the phase considered. For orientation: Tmax means the time from dosing to the highest level. In general, AUC refers to concentration integrated over time. Read a low AUC as low exposure.
